Results on 11 molecules are retold here after patent publication US20250129070A1, “BIFUNCTIONAL ANDROGEN RECEPTOR COMPOUNDS” (priority 2023, published 2025).

The subject of one assay is VCaP cells. The experiment in a line: VCaP growth inhibition assay. The format is cell-based. To be noted: 30 pM R1881, 9 days, CTG. The method in brief:
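Growth read by CTG luminescence after 9-day exposure to compound (final 100 nM–10 fM, 1:5 steps) plus 30 pM R1881, in phenol red-free DMEM with 5% CSS. Cells pre-incubated 72 h before dosing; IC50 by nonlinear 4-parameter regression.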

The next assay relates to AR / CBP ternary complex. Put plainly: Ternary complex formation assay (sandwich ELISA, AR capture / CBP detection) in VCaP cell lysates. The format is cell-based. The note with it: 1.5 hours treatment, sandwich ELISA (AR capture, CBP or p300 detection). The method in brief:
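Anti-AR (AR 441)-coated plates capture AR from lysates of VCaP cells grown ≥3 days at 50K/well in 5% charcoal-stripped FBS, dosed with bifunctional for 1.5 h and lysed 30 min at 4 °C. Co-captured CBP/p300 is probed with rabbit mAb and HRP anti-rabbit, then QuantaRed fluorescence (570/585) is read at 0, 5 and 15 min.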
(An ELISA detects its analyte on a solid surface through an enzyme-linked reagent.)

Where only a bound is given, the exact number is not on record here.

A word on the IC50: it is the concentration that inhibits the measured activity by half. The low end stands for inhibition by little substance, the high end for a need for much substance. One may read the EC50 as the concentration giving half of the maximal effect. Low values mean an effect from little substance, high ones a need for much substance. In the case of `CC(=O)N1CCc2c(c(N3CCCc4cc(-c5cnn(C)c5)c(C)cc43)nn2C2CCN(CC3CCN(c4ncc(C(=O)NC5C(C)(C)C(Oc6ccc(C#N)c(Cl)c6C)C5(C)C)cn4)CC3(C)C)CC2)C1` (stereo not shown) [Compound 464, 2-[4-[[4-[5-acetyl-3-[7-methyl-6-(1-methylpyrazol-4-yl)-3,4-dihydro-2H-quinolin-1-yl]-6,7-dihydro-4H-pyrazolo[4,3-c]pyridin-1-yl]-1-piperidyl]methyl]-3,3-dimethyl-1-piperidyl]-N-[3-(3-chloro-4-cyano-2-methyl-phenoxy)-2,2,4,4-tetramethyl-cyclobutyl]pyrimidine-5-carboxamide], the IC50 in the assay on VCaP cells is no more than 0.1 nM. For the same molecule, the EC50 with AR / CBP ternary complex was less than 1 nM.
`COc1cc(OC2C(C)(C)C(NC(=O)c3ccc(N4CC(N5CCCC6(CCC(n7nc(N8CCCc9cc(-c%10cnn(C)c%10)c(C(F)F)cc98)c8c7CCN(C(C)=O)C8)CC6)C5)C4)cc3)C2(C)C)ccc1C#N` (stereo not shown) [Compound 415, 4-[3-[9-[5-acetyl-3-[7-(difluoromethyl)-6-(1-methylpyrazol-4-yl)-3,4-dihydro-2H-quinolin-1-yl]-6,7-dihydro-4Hpyrazolo[4,3-c]pyridin-1-yl]-2-azaspiro[5.5]undecan-2-yl]azetidin-1-yl]-N-[3-(4-cyano-3-methoxy-phenoxy)-2,2,4,4-tetramethyl-cyclobutyl]benzamide] came in with an IC50 in the assay on VCaP cells of 1 to 100 nM. The molecule also showed an EC50 in the assay with AR / CBP ternary complex of 1 to 10 nM.
`COc1cc(OC2C(C)(C)C(NC(=O)c3ccc(N4CCC(CCc5ccc(-c6cc7c(cc6C(F)F)N(c6nn(C8CCOCC8)c8c6CN(C(C)=O)CC8)CCC7)cn5)CC4)cc3)C2(C)C)ccc1C#N` (stereo not shown) [Compound 247, 4-[4-[2-[5-[1-(5-acetyl-1-tetrahydropyran-4-yl-6,7-dihydro-4H-pyrazolo[4,3-c]pyridin-3-yl)-7-(difluoromethyl)-3,4-dihydro-2H-quinolin-6-yl]-2-pyridyl]ethyl]-1-piperidyl]-N-[3-(4-cyano-3-methoxy-phenoxy)-2,2,4,4-tetramethyl-cyclobutyl]benzamide] had an IC50 with VCaP cells of 0.1 to 1 nM. In the assay on AR / CBP ternary complex, this molecule came in with an EC50 of less than 1 nM.
For `C[C@@H]1CC(=O)Nc2cccc(-c3ccc4c(c3)c(-c3cnn(C)c3)nn4CCN(C)c3ncc(C(=O)NC4C(C)(C)C(Oc5ccc(C#N)c(Cl)c5)C4(C)C)cn3)c2N1` (stereo partly drawn) [Compound 48, N-[3-(3-chloro-4-cyano-phenoxy)-2,2,4,4-tetramethyl-cyclobutyl]-2-[methyl-[2-[5-[(4R)-4-methyl-2-oxo-1,3,4,5-tetrahydro-1,5-benzodiazepin-6-yl]-3-(1-methylpyrazol-4-yl)indazol-1-yl]ethyl]amino]pyrimidine-5-carboxamide], in that order: 1 to 100 nM and greater than 100 nM.
For the molecule `COc1cc(OC2C(C)(C)C(NC(=O)c3ccc(N4CCC(C(=O)N5CCC(n6nc(-c7cccc8cc(C9CC9)ncc78)c7c6CCN(C(C)=O)C7)CC5)CC4)cc3)C2(C)C)ccc1C#N` (stereo not shown) [Compound 256, 4-[4-[4-[5-acetyl-3-(3-cyclopropyl-8-isoquinolyl)-6,7-dihydro-4H-pyrazolo[4,3-c]pyridin-1-yl]piperidine-1-carbonyl]-1-piperidyl]-N-[3-(4-cyano-3-methoxy-phenoxy)-2,2,4,4-tetramethyl-cyclobutyl]benzamide], the IC50 in the assay with VCaP cells was 0.1 to 1 nM. Moreover, in the assay with AR / CBP ternary complex, the EC50 was less than 1 nM.
Consider `COc1cc(OC2C(C)(C)C(NC(=O)c3ccc(OC4CCC5(CC4)CC(N4CCC(n6nc(N7CCCc8cc(-c9cnn(C)c9)c(C(F)F)cc87)c7c6CCN(C(C)=O)C7)CC4)C5)cc3)C2(C)C)ccc1C#N` (stereo not shown) [Compound 396, 4-[2-[4-[5-acetyl-3-[7-(difluoromethyl)-6-(1-methylpyrazol-4-yl)-3,4-dihydro-2H-quinolin-1-yl]-6,7-dihydro-4H-pyrazolo[4,3-c]pyridin-1-yl]-1-piperidyl]spiro[3.5]nonan-7-yl]oxy-N-[3-(4-cyano-3-methoxy-phenoxy)-2,2,4,4-tetramethyl-cyclobutyl]benzamide], for which the IC50 with VCaP cells was in the range of 0.1 to 1 nM. In addition, the EC50 in the assay with AR / CBP ternary complex is less than 1 nM.
With `CC(=O)N1CCc2c(c(N3CCCc4ccc(C(F)F)cc43)nn2C2CC3(C2)CN(CC2CC4(C2)CN(c2ncc(C(=O)NC5C(C)(C)C(Oc6ccc(C#N)c(Cl)c6)C5(C)C)cn2)C4)C3)C1` (stereo not shown) [Compound 219, 2-[6-[[6-[5-acetyl-3-[7-(difluoromethyl)-3,4-dihydro-2H-quinolin-1-yl]-6,7-dihydro-4H-pyrazolo[4,3-c]pyridin-1-yl]-2-azaspiro[3.3]heptan-2-yl]methyl]-2-azaspiro[3.3]heptan-2-yl]-N-[3-(3-chloro-4-cyano-phenoxy)-2,2,4,4-tetramethyl-cyclobutyl]pyrimidine-5-carboxamide], the IC50 in the assay on VCaP cells was 0.1 to 1 nM. For the same molecule, the EC50 with AR / CBP ternary complex is 1 to 10 nM.
`COc1cc(OCC(C)(C)[C@H](NC(=O)c2ccc(N3CCN(CC4CCC(n5nc(N6CCCc7cc(-c8cnn(C)c8)c(C(F)F)cc76)c6c5CCN(C(C)=O)C6)CC4)CC3)cc2)C(C)C)ccc1C#N` (stereo partly drawn) [Compound 317, 4-[4-[[4-[5-acetyl-3-[7-(difluoromethyl)-6-(1-methylpyrazol-4-yl)-3,4-dihydro-2H-quinolin-1-yl]-6,7-dihydro-4H-pyrazolo[4,3-c]pyridin-1-yl]cyclohexyl]methyl]piperazin-1-yl]-N-[(1R)-3-(4-cyano-3-methoxy-phenoxy)-1-isopropyl-2,2-dimethyl-propyl]benzamide] registered an IC50 with VCaP cells of no more than 0.1 nM. Further, the EC50 in the assay with AR / CBP ternary complex was less than 1 nM.
With `CC(=O)N1CCc2c(c(N3CCCc4cc(-c5cnn(C)c5)c(C(F)F)cc43)nn2C2CCN([C@@H]3CCCN(c4ncc(C(=O)NC5C(C)(C)C(Oc6ccc(C#N)c(Cl)c6)C5(C)C)cn4)C3)CC2)C1` (stereo partly drawn) [Compound 398, 2-[(3R)-3-[4-[5-acetyl-3-[7-(difluoromethyl)-6-(1-methylpyrazol-4-yl)-3,4-dihydro-2H-quinolin-1-yl]-6,7-dihydro-4H-pyrazolo[4,3-c]pyridin-1-yl]-1-piperidyl]-1-piperidyl]-N-[3-(3-chloro-4-cyano-phenoxy)-2,2,4,4-tetramethyl-cyclobutyl]pyrimidine-5-carboxamide], the IC50 in the assay on VCaP cells lay within 1 to 100 nM. The EC50 in the assay with AR / CBP ternary complex is 1 to 10 nM.
In the case of `CC(=O)N1CCc2c(c(N3CCCc4cc(-c5cnn(C)c5)c(C(F)F)cc43)nn2C2CCN(CC3CCN(c4ncc(C(=O)NC5C(C)(C)C(Oc6ccc(C#N)c(Cl)c6)C5(C)C)cn4)CC3)C2)C1` (stereo not shown) [Compound 21, 2-[4-[[3-[5-acetyl-3-[7-(difluoromethyl)-6-(1-methylpyrazol-4-yl)-3,4-dihydro-2H-quinolin-1-yl]-6,7-dihydro-4H-pyrazolo[4,3-c]pyridin-1-yl]pyrrolidin-1-yl]methyl]-1-piperidyl]-N-[3-(3-chloro-4-cyano-phenoxy)-2,2,4,4-tetramethyl-cyclobutyl]pyrimidine-5-carboxamide], the IC50 in the assay with VCaP cells lay within 0.1 to 1 nM. Also, in the assay with AR / CBP ternary complex, the EC50 was in the range of 1 to 10 nM.
In the assay on VCaP cells, `CC(=O)N1CCc2c(c(N3CCCc4cc(-c5cnn(C)c5)c(C(F)F)cc43)nn2C2CCC3(CC2)CN(C2CCN(c4ncc(C(=O)NC5C(C)(C)C(Oc6ccc(C#N)c(Cl)c6)C5(C)C)cn4)CC2)C3)C1` (stereo not shown) [Compound 371, 2-[4-[7-[5-acetyl-3-[7-(difluoromethyl)-6-(1-methylpyrazol-4-yl)-3,4-dihydro-2H-quinolin-1-yl]-6,7-dihydro-4H-pyrazolo[4,3-c]pyridin-1-yl]-2-azaspiro[3.5]nonan-2-yl]-1-piperidyl]-N-[3-(3-chloro-4-cyano-phenoxy)-2,2,4,4-tetramethyl-cyclobutyl]pyrimidine-5-carboxamide] showed an IC50 of no more than 0.1 nM. The EC50 in the assay with AR / CBP ternary complex is less than 1 nM.
